pEC50: −log10 of the molar value.
Molecular target: NAMPT enzyme (Homo sapiens (Human), UniProt P43490)
Experiment: Enzyme Assay and NMN Detection (NAMPT reaction, fluorescence detection of NMN)
Format: biochemical
Details: Table B-1; NAMPT activation, NMN formation
Outline: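 Reaction in 50 mM HEPES pH 7.5, 5 mM MgCl2, 0.1% Prionex, 0.005% Tween 20, 1 mM TCEP at room temperature, with 16 nM NAMPT, 120 uM ATP, 5 uM nicotinamide, 6.25 uM PRPP, 0.04 U/ml pyrophosphatase for 2 h. Stopped with acetophenone/KOH then formic acid; NMN quantified by fluorescence (ex380/em460) against calibration curve.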

Sequence of NAMPT enzyme (P43490 whole entry, species assumed): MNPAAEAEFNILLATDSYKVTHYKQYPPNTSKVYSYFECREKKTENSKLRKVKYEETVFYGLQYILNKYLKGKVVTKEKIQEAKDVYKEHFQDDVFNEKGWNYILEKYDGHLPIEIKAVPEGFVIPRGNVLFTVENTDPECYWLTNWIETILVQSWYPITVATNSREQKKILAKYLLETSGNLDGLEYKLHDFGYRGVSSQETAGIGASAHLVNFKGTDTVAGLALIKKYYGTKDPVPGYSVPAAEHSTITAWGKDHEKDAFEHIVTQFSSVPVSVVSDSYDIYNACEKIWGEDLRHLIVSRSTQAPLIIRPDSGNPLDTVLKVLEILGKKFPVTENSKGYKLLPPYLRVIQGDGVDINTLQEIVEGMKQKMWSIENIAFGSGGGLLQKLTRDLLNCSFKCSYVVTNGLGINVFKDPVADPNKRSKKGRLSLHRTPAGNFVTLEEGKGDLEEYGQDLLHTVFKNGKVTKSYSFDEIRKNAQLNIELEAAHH

pEC50	SMILES
5.70 to 7.00	O=C(NCc1cn[nH]c1)Nc1ccc(C(=O)Nc2ccccc2Cl)cc1 [4-(3-((1H-pyrazol-4-yl)methyl)ureido)-N-(2-chlorophenyl)benzamide]
5.70 to 7.00	COc1ccccc1NC(=O)c1ccc(NC(=O)NCc2cn[nH]c2)cc1 [4-(3-((1H-pyrazol-4-yl)methyl)ureido)-N-(2-methoxyphenyl)benzamide]
5.70 to 7.00	COc1cccc(NC(=O)c2ccc(NC(=O)NCc3cn[nH]c3)cc2)c1 [4-(3-((1H-pyrazol-4-yl)methyl)ureido)-N-(3-methoxyphenyl)benzamide]
5.70 to 7.00	O=C(NCc1cn[nH]c1)Nc1ccc(C(=O)Nc2ccc(Cl)cc2)cc1 [4-(3-((1H-pyrazol-4-yl)methyl)ureido)-N-(4-chlorophenyl)benzamide]
5.70 to 7.00	COc1ccc(NC(=O)c2ccc(NC(=O)NCc3cn[nH]c3)cc2)cc1 [4-(3-((1H-pyrazol-4-yl)methyl)ureido)-N-(4-methoxyphenyl)benzamide]

Same assay, conditions: Table B-2; NAMPT activation, NMN formation

pEC50	SMILES
> 7.00	O=C(NCc1ccncc1)Nc1ccc(NS(=O)(=O)c2ccccc2Cl)cc1 [2-Chloro-N-[4-(3-pyridin-4-ylmethyl-ureido)-phenyl]-benzenesulfonamide]
5.70 to 7.00	COc1ccccc1S(=O)(=O)Nc1ccc(NC(=O)NCc2ccncc2)cc1 [2-Methoxy-N-[4-(3-pyridin-4-ylmethyl-ureido)-phenyl]-benzenesulfonamide]
> 7.00	COC(=O)c1ccccc1CNS(=O)(=O)c1ccc(NC(=O)NCc2ccncc2)cc1 [2-{[4-(3-Pyridin-4-ylmethyl-ureido)-benzenesulfonylamino]-methyl}-benzoic acid methyl ester]
< 4.70	O=C(NCc1ccncc1)Nc1cccc(C(=O)O)c1 [3-(3-(Pyridin-4-ylmethyl)ureido)benzoic acid]
> 7.00	O=C(NCc1ccncc1)Nc1ccc(NS(=O)(=O)c2cccc(Cl)c2)cc1 [3-Chloro-N-[4-(3-pyridin-4-ylmethyl-ureido)-phenyl]-benzenesulfonamide]
> 7.00	COc1cccc(S(=O)(=O)Nc2ccc(NC(=O)NCc3ccncc3)cc2)c1 [3-Methoxy-N-[4-(3-pyridin-4-ylmethyl-ureido)-phenyl]-benzenesulfonamide]
5.70 to 7.00	COC(=O)c1cccc(CNS(=O)(=O)c2ccc(NC(=O)NCc3ccncc3)cc2)c1 [3-{[4-(3-Pyridin-4-ylmethyl-ureido)-benzenesulfonylamino]-methyl}-benzoic acid methyl ester]
5.30 to 5.70	O=C(NCc1ccncc1)Nc1ccc(C(=O)NCCN2CCCC2)cc1 [4-(3-(Pyridin-4-ylmethyl)ureido)-N-(2-(pyrrolidin-1-yl)ethyl)benzamide]
5.70 to 7.00	O=C(NCc1ccncc1)Nc1ccc(C(=O)Nc2ccccc2OC(F)(F)F)cc1 [4-(3-(Pyridin-4-ylmethyl)ureido)-N-(2-(trifluoromethoxy)phenyl)benzamide]
5.70 to 7.00	Cc1cccc(NC(=O)c2ccc(NC(=O)NCc3ccncc3)cc2)c1 [4-(3-(Pyridin-4-ylmethyl)ureido)-N-(m-tolyl)benzamide]
5.70 to 7.00	Cc1ccccc1NC(=O)c1ccc(NC(=O)NCc2ccncc2)cc1 [4-(3-(Pyridin-4-ylmethyl)ureido)-N-(o-tolyl)benzamide]
5.30 to 5.70	Cc1ccc(NC(=O)c2ccc(NC(=O)NCc3ccncc3)cc2)cc1 [4-(3-(Pyridin-4-ylmethyl)ureido)-N-(p-tolyl)benzamide]
5.30 to 5.70	O=C(NCc1ccncc1)Nc1ccc(C(=O)Nc2cccs2)cc1 [4-(3-(Pyridin-4-ylmethyl)ureido)-N-(thiophen-2-yl)benzamide]
4.70 to 5.30	NC(=O)c1ccc(NC(=O)NCc2ccncc2)cc1 [4-(3-(Pyridin-4-ylmethyl)ureido)benzamide]
< 4.70	O=C(NCc1ccncc1)Nc1ccc(C(=O)O)cc1 [4-(3-(Pyridin-4-ylmethyl)ureido)benzoic acid]
5.30 to 5.70	O=C(NCc1ccncc1)Nc1ccc(C(=O)Nc2cccc(OC(F)(F)F)c2)cc1 [4-(3-(pyridin-4-ylmethyl)ureido)-N-(3-(trifluoromethoxy)phenyl)benzamide]

pEC50	SMILES
5.70 to 7.00	O=C(NCc1ccncc1)Nc1ccc(C(=O)Nc2ccc(OC(F)(F)F)cc2)cc1 [4-(3-(pyridin-4-ylmethyl)ureido)-N-(4-(trifluoromethoxy)phenyl)benzamide]
5.70 to 7.00	O=C(NCc1ccncc1)Nc1ccc(C(=O)Nc2cncnc2)cc1 [4-(3-(pyridin-4-ylmethyl)ureido)-N-(pyrimidin-5-yl)benzamide]
4.70 to 5.30	O=C(NCc1ccncc1)Nc1ccc(C(=O)NC2CCOC2)cc1 (stereo not drawn) [4-(3-(pyridin-4-ylmethyl)ureido)-N-(tetrahydrofuran-3-yl)benzamide]
> 7.00	O=C(NCc1ccncc1)Nc1ccc(S(=O)(=O)NC2CCCc3ccccc32)cc1 (stereo not drawn) [4-(3-Pyridin-4-ylmethyl-ureido)-N-(1,2,3,4-tetrahydro-naphthalen-1-yl)-benzenesulfonamide]
5.30 to 5.70	O=C(NCc1ccncc1)Nc1ccc(S(=O)(=O)NCCN2CCCC2)cc1 [4-(3-Pyridin-4-ylmethyl-ureido)-N-(2-pyrrolidin-1-yl-ethyl)-benzensulfonamide]
> 7.00	O=C(NCc1ccncc1)Nc1ccc(S(=O)(=O)NCc2ccccc2OC(F)(F)F)cc1 [4-(3-Pyridin-4-ylmethyl-ureido)-N-(2-trifluoromethoxy-benzyl)-benzenesulfonamide]
5.70 to 7.00	O=C(NCc1ccncc1)Nc1ccc(S(=O)(=O)NCc2ccccc2C(F)(F)F)cc1 [4-(3-Pyridin-4-ylmethyl-ureido)-N-(2-trifluoromethyl-benzyl)-benzenesulfonamide]
5.70 to 7.00	O=C(NCc1ccncc1)Nc1ccc(S(=O)(=O)NCc2cccc(OC(F)(F)F)c2)cc1 [4-(3-Pyridin-4-ylmethyl-ureido)-N-(3-trifluoromethoxy-benzyl)-benzenesulfonamide]
5.70 to 7.00	O=C(NCc1ccncc1)Nc1ccc(S(=O)(=O)NCc2cccc(C(F)(F)F)c2)cc1 [4-(3-Pyridin-4-ylmethyl-ureido)-N-(3-trifluoromethyl-benzyl)-benzenesulfonamide]
5.70 to 7.00	O=C(NCc1ccncc1)Nc1ccc(S(=O)(=O)NCc2ccc(OC(F)(F)F)cc2)cc1 [4-(3-Pyridin-4-ylmethyl-ureido)-N-(4-trifluoromethoxy-benzyl)-benzenesulfonamide]
5.70 to 7.00	O=C(NCc1ccncc1)Nc1ccc(S(=O)(=O)NCc2ccc(C(F)(F)F)cc2)cc1 [4-(3-Pyridin-4-ylmethyl-ureido)-N-(4-trifluoromethyl-benzyl)-benzenesulfonamide]
5.70 to 7.00	O=C(NCc1ccncc1)Nc1ccc(S(=O)(=O)NC2CCOC2)cc1 (stereo not drawn) [4-(3-Pyridin-4-ylmethyl-ureido)-N-(tetrahydro-furan-3-yl)-benzenesulfonamide]
5.70 to 7.00	Cc1cccc(NS(=O)(=O)c2ccc(NC(=O)NCc3ccncc3)cc2)c1 [4-(3-Pyridin-4-ylmethyl-ureido)-N-m-tolyl-benzenesulfonamide]
5.70 to 7.00	Cc1ccccc1NS(=O)(=O)c1ccc(NC(=O)NCc2ccncc2)cc1 [4-(3-Pyridin-4-ylmethyl-ureido)-N-o-tolyl-benzenesulfonamide]
5.70 to 7.00	Cc1ccc(NS(=O)(=O)c2ccc(NC(=O)NCc3ccncc3)cc2)cc1 [4-(3-Pyridin-4-ylmethyl-ureido)-N-p-tolyl-benzenesulfonamide]

Same assay, conditions: Table B-3; NAMPT activation, NMN formation

pEC50	SMILES
< 4.70	CCOC(=O)c1ccc2c(cnn2C(=O)NCc2ccncc2)c1 [1-[(Pyridin-4-ylmethyl)-carbamoyl]-1H-indazole-5-carboxylic acid ethyl ester]
< 4.70	CCOC(=O)c1ccc(N2CCN(Cc3ccncc3)C2=O)cc1 [4-(2-Oxo-3-pyridin-4-ylmethyl-imidazolidin-1-yl)-benzoic acid ethyl ester]
< 4.70	O=C(O)c1ccc(N2CCN(Cc3ccncc3)C2=O)cc1 [4-(2-oxo-3-pyridin-4-ylmethyl-imidazolidin-1-yl)-benzoic acid]
< 4.70	CCOC(=O)c1ccc(NC(=O)N(C)Cc2ccccc2)cc1 [4-(3-Benzyl-3-methyl-ureido)-benzoic acid ethyl ester]

Same assay, conditions: Table B-4; NAMPT activation, NMN formation

pEC50	SMILES
4.70 to 5.30	O=C(NCc1cn[nH]c1)Nc1ccc(Nc2nc(-c3ccccc3Cl)cs2)cc1 [1-{4-[4-(2-Chloro-phenyl)-thiazol-2-ylamino]-phenyl}-3-(1H-pyrazol-4-ylmethyl)-urea]
5.70 to 7.00	O=C(NCc1cn[nH]c1)Nc1ccc(Nc2nc(-c3ccccc3F)cs2)cc1 [1-{4-[4-(2-Fluoro-phenyl)-thiazol-2-ylamino]-phenyl}-3-(1H-pyrazol-4-ylmethyl)-urea]
5.30 to 5.70	O=C(NCc1cn[nH]c1)Nc1ccc(Nc2nc(-c3cccc(Cl)c3)cs2)cc1 [1-{4-[4-(3-Chloro-phenyl)-thiazol-2-ylamino]-phenyl}-3-(1H-pyrazol-4-ylmethyl)-urea]
5.70 to 7.00	O=C(NCc1cn[nH]c1)Nc1ccc(Nc2nc(-c3cccc(F)c3)cs2)cc1 [1-{4-[4-(3-Fluoro-phenyl)-thiazol-2-ylamino]-phenyl}-3-(1H-pyrazol-4-ylmethyl)-urea]
5.70 to 7.00	O=C(NCc1cn[nH]c1)Nc1ccc(Nc2nc(-c3ccc(Cl)cc3)cs2)cc1 [1-{4-[4-(4-Chloro-phenyl)-thiazol-2-ylamino]-phenyl}-3-(1H-pyrazol-4-ylmethyl)-urea]
5.70 to 7.00	O=C(NCc1cn[nH]c1)Nc1ccc(Nc2nc(-c3ccc(F)cc3)cs2)cc1 [1-{4-[4-(4-Fluoro-phenyl)-thiazol-2-ylamino]-phenyl}-3-(1H-pyrazol-4-ylmethyl)-urea]

Same assay, conditions: Table B-6; NAMPT activation, NMN formation

pEC50	SMILES
5.70 to 7.00	O=C(NCc1ccncc1)Nc1ccc(S(=O)(=O)c2cnccn2)cc1 [1-[4-(Pyrazine-2-sulfonyl)-phenyl]-3-pyridin-4-ylmethyl-urea]
5.70 to 7.00	O=C(NCc1ccncc1)Nc1ccc(S(=O)(=O)c2cccnc2)cc1 [1-[4-(Pyridine-3-sulfonyl)-phenyl]-3-pyridin-4-ylmethyl-urea]

— patent publication US11452717B2, “Small molecule activators of nicotinamide phosphoribosyltransferase (NAMPT) and uses thereof” (Sanford Burnham Prebys Medical Discovery Institute, priority 2017, dated 2022)
